{"source": "patent US20220362182A1", "about": "“METHODS FOR REVERSING HEPATIC STEATOSIS” (BRIGHTSEED, INC., priority 2020, published 2022)", "key": {"SPNS2 mRNA [1]": {"system": "SPNS2 mRNA", "test": "SPNS2 mRNA in primary human hepatocytes", "assay_type": "cell-based", "details": "high fat media, 5, 15, 40 µM, Day 4 to Day 10", "procedure": "(§1) Experiments with primary human hepatocytes were performed by CN-Bio (Cambridge, UK). Primary human hepatocytes (PHHs), human Kupffer cells (HKs) and human stellate cells (HSCs) were seeded onto CN-Bio's PhysioMimix LC12 MPS culture plates at 6×10^5 cells for PHHs and 6×10^4 cells for HKs and HSCs in 1.6 ml of CN-Bio's HEP-lean media with 5% FCS. Throughout the experiment the cells were maintained at a flow rate of 1 μl/s. After 24 h (Day 1) of seeding, the media was changed to HEP-lean media and the cells were incubated until day 4 to allow the cells to form microtissues. At day 4 post seeding, media was changed to HEP-fat media and treated with DMSO or NCT (5, 15, 40 μM). Media was replaced on days 6 and 8. Cells were harvested on day 10 for RNA extraction. Data are presented as mean ±SEM of three or more samples as indicated. Statistical significance was assessed using Student's t-test, ANOVA or R^2 coefficient of correlation."}, "CYP26A1 mRNA [2]": {"system": "CYP26A1 mRNA", "test": "CYP26A1 mRNA in T6PNE cells", "assay_type": "cell-based, human", "details": "2 days, 0.25 mM palmitate, NCT 10 μM, 4-OH-RA 20 μM", "procedure": "(§2) Quantitative PCR (Q-PCR) from in vitro cell culture experiments used total RNA purified using RNeasy Kits (Qiagen). For liver tissue samples, total RNA was isolated using Trizol (Invitrogen) and prepared for RNAseq (mouse liver DMSO and NCT, N=3). cDNA was amplified using 3 μg of total RNA using qScript cDNA SuperMix (Quanta BioSciences, Beverly, Mass., USA). QPCR analysis was performed using SYBR® Select Master Mix (Applied Biosystems) and ABI 7900HT (Applied Biosystems, Thermo Fisher Scientific). The Ct values of mRNA expression were then normalized to the 18 s rRNA values and are expressed as fold change over samples from mice fed normal chow for in vivo experiments or DMSO controls for cell culture experiments."}, "C57BL/6J DIO mice": {"system": "C57BL/6J DIO mice", "test": "DIO mice injected IP for 14 days (hepatic steatosis)", "assay_type": "in vivo", "details": "for serum free fatty acids (FFA): after glucose challenge; for hepatic stored fat by Oil Red O staining: liver sections; for hepatic stored fat by Oil Red O staining / alkaline phosphatase (ALP) / epididymal fat pad weight / hepatic triglyceride content / liver weight / hepatic steatosis: 200 mg/kg; for alkaline phosphatase (ALP) / epididymal fat pad weight / hepatic triglyceride content / liver weight: vs DMSO; for hepatic steatosis: two weeks; for toxicity / general condition: mice, IP, up to the highest dose administered", "procedure": "Compounds were injected IP into diet-induced obese mice at a dose of 200 mg/kg bid for two weeks. At that point, mice were sacrificed and organs were harvested for analysis. To test the hypothesis that HNF4a controls hepatic fat storage, N-trans-caffeoyltyramine was administered to C57BL/6J DIO mice maintained on a 60% fat calorie diet. Based upon PK studies with N-trans-caffeoyltyramine, IP injection was chosen for two week for these proof of concept studies. […] It was observed that N-trans-caffeoyltyramine was stimulating lipophagy (FIG. 1A).\nSlides containing frozen liver tissue sections from mice were air dried for 10-20 min followed by rehydration in distilled water. Sections were immersed in absolute propylene glycol (Cat #151957, MP Biomedicals, LLC, USA) for 2 min followed by 0.5% in oil red O solution (Cat #K043, Poly Scientific R&D, USA) for 2 h. Slides were then differentiated in 85% propylene glycol solution, washed with dH2O for 2 h, and mounted using glycerin jelly mounting medium. All slides were scanned at a magnification of 20× using the Aperio Scanscope FL system (Aperio Technologies Inc., Vista, Calif., USA). The liver area stained with oil red O was measured using image J software as described, with some modifications. Oil red O-stained liver images were opened in Image J software. Using the Analyze>Set Scale command, the scale bar of the images was set to 200 um. RGB images were then converted into gray scale images using the Image>Type>RGB Stack command and were split into red, blue and green channels. Using the Image>Adjust>Threshold command, the threshold was manually set to highlight the oil red O-stained lipid droplets in the green channel. The same threshold was used for all the images in all treatment groups and the % oil red O-stained area was obtained using the Analyze→Measure tool command. Fold change was calculated by normalizing the values to images from mice fed normal chow.\n12-week-old C57BL/6 J DIO male mice (cat #380050) were purchased from Jackson Laboratory and were fed with high fat diet containing 60 kcal % fat (Research Diets cat #D12492). Mice were maintained in a 12-h light/day cycle. After 2 weeks of acclimation, mice with similar body weights were randomly assigned to treatment or control groups.\nFor dose response experiments, mice were injected intraperitoneally with 10% DMSO as vehicle control or 4 different doses of NCT (30, 60, 120 and 240 mg/kg of body weight) dissolved in 10% DMSO. Mice received 2 doses per day with a 5 h interval between injections for 3 days. To test the effect of NCT (Sundia MediTech Company, Ltd., Custom synthesis), 200 mg/kg was injected IP bid for 14 days. On day 15, mice received a final dose of NCT followed by IP injection with 3 g/kg dextrose. One h later, blood samples were collected and mice were euthanized using pentobarbital. Total mouse, liver and epididymal fat pad weights were measured. Dissected liver samples were washed in cold PBS, cut into small pieces and distributed for analyses. For RNA isolation and ELISA, liver samples were snap frozen using liquid nitrogen and stored at −80° C. For histomorphometry and immunofluorescence analysis, liver samples were fixed in 4% of cold PFA and processed for histology. All animal experiments were approved by the Institutional Animal Care and Use Committee (IACUC) of the Sanford Burnham Prebys Medical Discovery Institute in accordance with national regulations.\nThe serum FFA level was measured using the Free Fatty Acid Quantification Colorimetric/Fluorometric Kit (Cat #K612, BioVision, USA). Fold change was calculated by normalizing to values from mice fed normal chow.\nSerum and liver TG level was measured using the Triglyceride calorimetric Assay Kit (Cat #10010303, Cayman Chemicals, USA). Fold change was calculated by normalizing the values from normal chow mice. […]"}, "CYP26A1 mRNA [3]": {"system": "CYP26A1 mRNA", "test": "CYP26a1 mRNA in primary human hepatocytes", "assay_type": "cell-based", "details": "high fat media, 5, 15, 40 µM, Day 4 to Day 10", "procedure": "as §1"}, "SPNS2 mRNA [4]": {"system": "SPNS2 mRNA", "test": "SPNS2 qPCR in mouse liver", "assay_type": "in vivo", "procedure": "as §2"}, "[5]": {"details": "DIO mice, 200 mg/kg bid IP, 14 days"}, "[6]": {"details": "DIO mice, 200 mg/kg bid IP, 14 days, listed as N-trans-caffeoyltyramine"}}, "note": "Entries after “also recorded” stand apart in the source; their conditions may differ.", "data": [{"smiles": "O=C(/C=C/c1ccc(O)c(O)c1)NCCc1ccc(O)cc1", "note": "[NCT, N-trans-caffeoyltyramine]", "values": [{"measurement": "SPNS2 mRNA", "setting": "SPNS2 mRNA [1]", "value": "did not induce a change in SPNS2 expression"}, {"measurement": "CYP26A1 mRNA level", "setting": "CYP26A1 mRNA [2]", "value": "induced CYP26a1"}, {"measurement": "color of the liver", "setting": "C57BL/6J DIO mice; [5]", "value": "shift in the color of the liver from yellow to red"}, {"measurement": "other markers of liver function in the VetScan panel", "setting": "C57BL/6J DIO mice; [5]", "value": "no change"}, {"measurement": "serum free fatty acids (FFA)", "setting": "C57BL/6J DIO mice; [5]", "value": "induced an increase in free fatty acids"}, {"measurement": "serum free fatty acids (FFA)", "setting": "C57BL/6J DIO mice; [6]", "value": "induced an increase in free fatty acids; also recorded: Serum FFA were increased"}, {"measurement": "hepatic stored fat by Oil Red O staining", "setting": "C57BL/6J DIO mice; [5]", "value": "decrease in stored fat by Oil Red O staining"}, {"measurement": "hepatic stored fat by Oil Red O staining", "setting": "C57BL/6J DIO mice; [6]", "value": "decrease in stored fat by Oil Red O staining; also recorded: significantly reduced the Oil Red O"}, {"measurement": "alkaline phosphatase (ALP)", "setting": "C57BL/6J DIO mice; [5]", "value": "decreased ALP; also recorded: decrease in ALP"}, {"measurement": "epididymal fat pad weight", "setting": "C57BL/6J DIO mice; [5]", "value": "increase in epididymal fat pad mass; also recorded: increased weight"}, {"measurement": "hepatic triglyceride content", "setting": "C57BL/6J DIO mice; [5]", "value": "reduction in the hepatic triglyceride content"}, {"measurement": "liver weight", "setting": "C57BL/6J DIO mice; [5]", "value": "weighed less than those of the control mice"}, {"measurement": "alkaline phosphatase (ALP)", "setting": "C57BL/6J DIO mice; [6]", "value": "ALP was decreased"}, {"measurement": "epididymal fat pad weight", "setting": "C57BL/6J DIO mice; [6]", "value": "increase in epididymal fat pad mass; also recorded: increase in epididymal fat pad weight"}, {"measurement": "hepatic triglyceride content", "setting": "C57BL/6J DIO mice; [6]", "value": "hepatic triglyceride content was decreased; also recorded: significantly reduced"}, {"measurement": "liver weight", "setting": "C57BL/6J DIO mice; [6]", "value": "weighed less than those of the control mice; also recorded: decreased liver weight"}, {"measurement": "body weight gain", "setting": "C57BL/6J DIO mice; DIO mice, 200 mg/kg bid IP, 14 days, vs control", "value": "gained weight to a similar degree"}, {"measurement": "hepatic steatosis", "setting": "C57BL/6J DIO mice; DIO mice, 200 mg/kg bid IP", "value": "reversed hepatic steatosis; also recorded: reversal of hepatic steatosis; also recorded: reduction of steatosis"}, {"measurement": "hepatic steatosis", "setting": "C57BL/6J DIO mice; DIO mice, 200 mg/kg bid IP, listed as N-trans-caffeoyltyramine", "value": "reverses hepatic steatosis"}, {"measurement": "serum TG at week 1", "setting": "C57BL/6J DIO mice; DIO mice, 200 mg/kg bid IP, week 1", "value": "increased"}, {"measurement": "serum TG at week 2", "setting": "C57BL/6J DIO mice; DIO mice, 200 mg/kg bid IP, week 2, end of the study", "value": "not at week 2"}, {"measurement": "toxicity / general condition", "setting": "C57BL/6J DIO mice", "value": "remained healthy and active; also recorded: unable to establish a maximum tolerated dose because of the lack of toxicity; also recorded: completely nontoxic at the highest dose administered"}, {"measurement": "toxicity / general condition", "setting": "C57BL/6J DIO mice; listed as N-trans-caffeoyltyramine", "value": "remained healthy and active"}, {"measurement": "CYP26a1 mRNA", "setting": "CYP26A1 mRNA [3]", "value": "induced CYP26a1; also recorded: significantly induced"}, {"measurement": "SPNS2 expression in mouse liver", "setting": "SPNS2 mRNA [4]", "value": "did not induce a change in SPNS2 expression; also recorded: not mouse liver"}]}]}
